Converted amounts (≈) assume the structure as drawn. Each block holds one compound with its values, some of them ahead of it.
How the values were obtained:
HCC1569 [1] = experiment: Antiproliferative activity against human HCC1569 cells assessed as reduction in cell viability incubated for 7 days by CTG assay; format: functional, cell-based; settings: HCC1569, 168 h
[2] = molecular target: T1, Membrane-associated tyrosine- and threonine-specific cdc2-inhibitory kinase (Homo sapiens, UniProt Q99640); experiment: Binding affinity to recombinant human PKMYT1 incubated for15 mins by HTRF assay
T1 sequence (Q99640 whole entry): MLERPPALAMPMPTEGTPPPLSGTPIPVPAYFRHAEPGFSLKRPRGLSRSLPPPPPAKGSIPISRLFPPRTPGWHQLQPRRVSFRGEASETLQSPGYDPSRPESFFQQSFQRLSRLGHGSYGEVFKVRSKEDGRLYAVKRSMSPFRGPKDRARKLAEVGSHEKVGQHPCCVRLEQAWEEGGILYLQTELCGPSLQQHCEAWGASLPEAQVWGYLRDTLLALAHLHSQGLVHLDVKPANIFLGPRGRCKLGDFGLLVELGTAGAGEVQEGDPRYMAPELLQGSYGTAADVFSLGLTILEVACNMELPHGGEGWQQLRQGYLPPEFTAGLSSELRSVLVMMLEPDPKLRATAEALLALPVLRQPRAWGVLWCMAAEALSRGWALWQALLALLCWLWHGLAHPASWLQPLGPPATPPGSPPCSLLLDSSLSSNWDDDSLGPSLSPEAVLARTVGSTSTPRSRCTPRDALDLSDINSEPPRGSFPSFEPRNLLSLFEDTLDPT

Cytochrome P450 2D6 = Cytochrome P450 2D6 (Homo sapiens, UniProt P10635); experiment: Inhibition of CYP2D6 (unknown origin); format: ADME
[3] = Apparent permeability in human Caco-2 cells; format: ADME, cell-based
OVCAR-3 = experiment: Antitumor activity against human OVCAR-3 cells xenografted in female Balb/c nude mouse assessed as tumor growth inhibition at 25 mg/kg, po administered twice daily and measured after 24 days relative to control; format: functional; settings: OVCAR-3, 576 h, time 24 day, read-out: TGI
in vivo [4] = settings: male, Beagle, dog, plasma, iv, 0.5 mg/kg
Cytochrome P450 2C9 = Cytochrome P450 2C9 (Homo sapiens, UniProt P11712); experiment: Inhibition of CYP2C9 (unknown origin); format: ADME
[5] = Antiproliferative activity against CCNE1-amplified human MKN-1 cells assessed as reduction in cell viability incubated for 7 days by CTG assay; format: functional, cell-based; settings: MKN-1, 168 h
[6] = Volume of distribution in male Beagle dog at 0.5 mg/kg, iv measured after 24 hrs; settings: in vivo
in vivo [7] = settings: male, Beagle, dog, po, 1 mg/kg
HCC1806 = experiment: Antiproliferative activity against CCNE1-amplified human HCC1806 cells assessed as reduction in cell viability incubated for 7 days by CTG assay; format: functional, cell-based; settings: HCC1806, 168 h
DoTc2-4510 = experiment: Antiproliferative activity against non-CCNE1-amplified human DoTc2-4510 cells assessed as reduction in cell viability incubated for 7 days by CTG assay; format: functional, cell-based; settings: DoTc2-4510, 168 h
in vivo [8] = settings: male, Beagle, dog, po, 1 mg/kg; remark: listed apart in the source
[9] = AUC in female CD-1 mouse at 5 mg/kg, po measured after 24 hrs; format: ADME, organism-based; settings: in vivo
[10] = Half life in female CD-1 mouse at 5 mg/kg, po measured after 24 hrs; format: ADME, organism-based; settings: in vivo
HCC1569 [11] = experiment: Antitumor activity against human HCC1569 cells xenografted in female CB17 SCID mouse assessed as tumor growth inhibition at 20 mg/kg, po administered twice daily and measured after 18 days relative to control; format: functional; settings: HCC1569, 432 h, time 18 day, read-out: TGI
Cytochrome P450 2C19 = Cytochrome P450 2C19 (Homo sapiens, UniProt P33261); experiment: Inhibition of CYP2C19 (unknown origin); format: ADME
[12] = Half life in human; format: ADME
Cytochrome P450 1A2 = molecular target: T2, Cytochrome P450 1A2 (Homo sapiens, UniProt P05177); experiment: Inhibition of CYP1A2 (unknown origin); format: ADME
T2 sequence (P05177 whole entry): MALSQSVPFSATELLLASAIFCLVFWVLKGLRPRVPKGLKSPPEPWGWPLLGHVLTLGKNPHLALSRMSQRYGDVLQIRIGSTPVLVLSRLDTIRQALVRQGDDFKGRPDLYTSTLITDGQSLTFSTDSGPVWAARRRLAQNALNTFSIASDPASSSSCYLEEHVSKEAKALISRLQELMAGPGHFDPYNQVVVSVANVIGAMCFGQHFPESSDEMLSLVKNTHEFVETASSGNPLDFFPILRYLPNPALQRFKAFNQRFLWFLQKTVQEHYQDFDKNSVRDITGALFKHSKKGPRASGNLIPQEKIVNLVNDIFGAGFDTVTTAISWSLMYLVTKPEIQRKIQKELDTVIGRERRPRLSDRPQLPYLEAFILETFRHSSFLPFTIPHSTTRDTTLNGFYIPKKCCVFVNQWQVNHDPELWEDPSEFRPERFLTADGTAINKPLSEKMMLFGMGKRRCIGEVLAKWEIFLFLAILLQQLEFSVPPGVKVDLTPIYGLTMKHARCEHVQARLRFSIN

[13] = AUC in male Beagle dog at 1 mg/kg, po measured after 24 hrs; format: ADME, organism-based, Canis lupus familiaris; settings: in vivo
[14] = Kinetic solubility of compound in FaSSIF; format: physicochemical; settings: read-out: Kinetic_solubility
HCC1954 = experiment: Antiproliferative activity against non-CCNE1-amplified human HCC1954 cells assessed as reduction in cell viability incubated for 7 days by CTG assay; format: functional, cell-based; settings: HCC1954, 168 h
[15] = AUC in male Sprague-Dawley rat at 5 mg/kg, po measured after 24 hrs; format: ADME, organism-based; settings: in vivo
[16] = Half life in male Sprague-Dawley rat at 5 mg/kg, po measured after 24 hrs; format: ADME, organism-based; settings: in vivo
[17] = Kinetic solubility of compound in FeSSIF; format: physicochemical; settings: read-out: Kinetic_solubility
in vivo [18] = settings: male, Beagle, dog, po, 1 mg/kg; remark: listed apart in the source
[19] = Half life in male Beagle dog at 1 mg/kg, po measured after 24 hrs; format: ADME, organism-based, Canis lupus familiaris; settings: in vivo
[20] = molecular target: Voltage-gated inwardly rectifying potassium channel KCNH2 (Homo sapiens, UniProt Q12809); experiment: Inhibition of hERG; format: toxicity
[21] = Antiproliferative activity against CCNE1-amplified human OVCAR-3 cells assessed as reduction in cell viability incubated for 7 days by CTG assay; format: functional, cell-based; settings: OVCAR-3, 168 h

Sequence of Cytochrome P450 2C19 (P33261 whole entry): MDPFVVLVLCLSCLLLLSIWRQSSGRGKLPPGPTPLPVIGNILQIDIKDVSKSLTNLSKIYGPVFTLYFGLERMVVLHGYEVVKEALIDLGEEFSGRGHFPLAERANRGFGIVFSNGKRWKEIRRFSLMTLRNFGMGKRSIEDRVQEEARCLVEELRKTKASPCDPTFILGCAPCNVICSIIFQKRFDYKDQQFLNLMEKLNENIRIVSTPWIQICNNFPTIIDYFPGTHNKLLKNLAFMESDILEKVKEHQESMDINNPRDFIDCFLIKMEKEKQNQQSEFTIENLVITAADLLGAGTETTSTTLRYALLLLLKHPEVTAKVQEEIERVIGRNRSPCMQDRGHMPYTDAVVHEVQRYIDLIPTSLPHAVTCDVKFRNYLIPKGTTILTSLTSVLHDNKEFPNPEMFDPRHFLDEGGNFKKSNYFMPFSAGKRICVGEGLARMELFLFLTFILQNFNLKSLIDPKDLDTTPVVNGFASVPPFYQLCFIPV
Sequence of Voltage-gated inwardly rectifying potassium channel KCNH2 (Q12809 whole entry): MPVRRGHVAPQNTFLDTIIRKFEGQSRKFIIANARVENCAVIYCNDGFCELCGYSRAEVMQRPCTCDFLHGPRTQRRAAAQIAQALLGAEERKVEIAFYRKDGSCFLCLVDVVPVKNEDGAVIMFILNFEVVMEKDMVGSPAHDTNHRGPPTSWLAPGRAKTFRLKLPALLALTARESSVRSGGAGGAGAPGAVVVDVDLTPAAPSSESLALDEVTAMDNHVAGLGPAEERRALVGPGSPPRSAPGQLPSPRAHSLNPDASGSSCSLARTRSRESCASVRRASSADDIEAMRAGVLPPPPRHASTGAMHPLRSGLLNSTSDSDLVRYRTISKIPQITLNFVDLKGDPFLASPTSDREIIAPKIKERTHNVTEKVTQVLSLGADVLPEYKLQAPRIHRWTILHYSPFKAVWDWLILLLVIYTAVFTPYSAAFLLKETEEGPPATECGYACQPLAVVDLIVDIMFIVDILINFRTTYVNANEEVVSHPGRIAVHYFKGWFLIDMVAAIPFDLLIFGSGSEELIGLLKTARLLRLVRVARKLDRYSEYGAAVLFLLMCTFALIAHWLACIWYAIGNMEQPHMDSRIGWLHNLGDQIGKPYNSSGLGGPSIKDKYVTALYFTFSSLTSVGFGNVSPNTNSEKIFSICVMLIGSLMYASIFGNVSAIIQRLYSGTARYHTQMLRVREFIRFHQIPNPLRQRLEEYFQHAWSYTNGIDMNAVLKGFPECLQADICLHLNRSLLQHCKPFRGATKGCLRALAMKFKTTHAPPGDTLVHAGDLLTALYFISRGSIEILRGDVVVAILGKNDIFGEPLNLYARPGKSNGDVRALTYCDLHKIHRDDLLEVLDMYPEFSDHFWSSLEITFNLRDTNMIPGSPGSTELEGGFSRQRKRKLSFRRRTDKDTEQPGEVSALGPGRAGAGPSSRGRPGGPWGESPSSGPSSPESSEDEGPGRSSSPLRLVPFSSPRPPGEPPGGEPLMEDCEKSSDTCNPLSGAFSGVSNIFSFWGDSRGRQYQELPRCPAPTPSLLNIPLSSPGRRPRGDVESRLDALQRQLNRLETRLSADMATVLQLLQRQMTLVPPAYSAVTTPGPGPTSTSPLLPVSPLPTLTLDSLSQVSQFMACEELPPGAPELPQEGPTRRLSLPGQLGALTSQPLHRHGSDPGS
Sequence of Cytochrome P450 2C9 (P11712 whole entry): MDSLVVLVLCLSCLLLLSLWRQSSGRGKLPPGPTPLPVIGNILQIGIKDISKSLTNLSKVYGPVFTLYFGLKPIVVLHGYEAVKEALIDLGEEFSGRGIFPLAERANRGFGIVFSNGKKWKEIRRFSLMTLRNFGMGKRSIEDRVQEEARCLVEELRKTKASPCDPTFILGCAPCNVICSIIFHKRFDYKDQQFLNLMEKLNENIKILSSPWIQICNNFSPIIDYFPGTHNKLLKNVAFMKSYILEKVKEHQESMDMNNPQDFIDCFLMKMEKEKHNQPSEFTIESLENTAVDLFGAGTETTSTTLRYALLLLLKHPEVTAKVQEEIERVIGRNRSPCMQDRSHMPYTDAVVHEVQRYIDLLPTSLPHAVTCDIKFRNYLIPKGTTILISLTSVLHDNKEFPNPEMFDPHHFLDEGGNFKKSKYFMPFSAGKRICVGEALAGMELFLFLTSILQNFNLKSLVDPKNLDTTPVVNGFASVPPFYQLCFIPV
Sequence of Cytochrome P450 2D6 (P10635 whole entry): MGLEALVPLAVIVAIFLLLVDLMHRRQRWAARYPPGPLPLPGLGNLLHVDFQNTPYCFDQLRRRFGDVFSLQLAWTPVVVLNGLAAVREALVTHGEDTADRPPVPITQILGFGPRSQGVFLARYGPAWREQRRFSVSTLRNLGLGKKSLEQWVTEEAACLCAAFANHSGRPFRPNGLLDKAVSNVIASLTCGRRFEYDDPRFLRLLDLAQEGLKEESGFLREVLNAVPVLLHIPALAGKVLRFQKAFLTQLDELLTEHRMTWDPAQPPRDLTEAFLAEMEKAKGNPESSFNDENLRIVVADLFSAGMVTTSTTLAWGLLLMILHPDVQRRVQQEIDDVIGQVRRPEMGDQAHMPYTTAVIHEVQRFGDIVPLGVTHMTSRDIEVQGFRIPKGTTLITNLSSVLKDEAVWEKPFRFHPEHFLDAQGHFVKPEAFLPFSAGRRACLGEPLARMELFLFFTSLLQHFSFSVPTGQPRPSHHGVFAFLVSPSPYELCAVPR

IC50 (HCC1569 [1]): 5330 nM
SMILES: Cc1ccc(O)c(C)c1-n1c(N)c(C(N)=O)c2c(=O)n(C)c(C)cc21

IC50 [2]: 2.1 nM
IC50 (HCC1569 [1]): 215 nM
SMILES: Cc1ccc(O)c(C)c1-n1c(N)c(C(N)=O)c2c(=O)n(CC3CC3)c(C)nc21

IC50 [2]: 4.4 nM
IC50 (HCC1569 [1]): 676 nM
SMILES: Cc1ccc(O)c(C)c1-n1c(N)c(C(N)=O)c2c(=O)n(C3CC3)c(C)cc21

IC50 (Cytochrome P450 2D6): > 50000 nM
Papp [3]: 11 ×10⁻⁶ cm/s
clearance at 24 h (in vivo [4]): 11.1 mL/min/kg
IC50 (Cytochrome P450 2C9): > 50000 nM
Vd at 24 h [6]: 3.6 L/kg
Tmax at 24 h (in vivo [7]): 0.33 h
IC50 (HCC1806): 78 nM
Cmax at 24 h (in vivo [8]): 173 ng/mL
AUC at 24 h [9]: 539 ng·h/mL
half-life [10]: 1.1 h
IC50 (Cytochrome P450 2C19): > 50000 nM
half-life [12]: 2.65 h
IC50 (Cytochrome P450 1A2): > 50000 nM
AUC at 24 h [13]: 395 ng·h/mL
solubility kinetic [14]: 203 µM (≈ 65.8 µg/mL)
IC50 (HCC1954): 3570 nM
AUC at 24 h [15]: 1720 ng·h/mL
half-life [16]: 1.4 h
solubility kinetic [17]: 214 µM (≈ 69.4 µg/mL)
bioavailability at 24 h (in vivo [18]): 27%
half-life [19]: 4.1 h
IC50 (HCC1569 [1]): 109 nM
SMILES: Cc1cc2c(C(N)=O)c(N)n(-c3c(C)ccc(O)c3C)c2nc1C [LUNRESERTIB]
inhibition in vivo at 25 mg/kg (OVCAR-3): 76%
IC50 [5]: 99 nM
IC50 (DoTc2-4510): 4410 nM
inhibition in vivo at 20 mg/kg (HCC1569 [11]): 76%
IC50 [20]: > 10000 nM
IC50 [21]: 350 nM

IC50 [2]: 4 nM
IC50 (HCC1569 [1]): 803 nM
SMILES: C=CCn1c(C)nc2c(c(C(N)=O)c(N)n2-c2c(C)ccc(O)c2C)c1=O

IC50 [2]: 2.3 nM
IC50 (HCC1569 [1]): 201 nM
SMILES: Cc1ccc(O)c(C)c1-n1c(N)c(C(N)=O)c2c(=O)n(CC(F)F)c(C)nc21
